Assay results taken from patent US20240059753A1, “COMPOSITIONS INCLUDING MULTI-AGONIST PEPTIDES AND METHODS OF MANUFACTURE AND USE” (Pep2Tango Therapeutics Inc., priority 2022, published 2024).
Structures can show the parent of a compound that is named as a salt. Values belong to the compound of their own block, whether it stands above or below them.

How the values were obtained:
Human Calc/RAMP3R (AMY3) = target: T1, Human Calc/RAMP3R (AMY3) (Homo sapiens, UniProt O60896+P30988); test: GPCR cell-based cAMP assay, human AMY3 receptor; conditions: stably transfected CHO-Kl cells, 0.1% casein
T1 construct: expressed in transfected cells; host or cells: CHO-K1, stably transfected
T1 sequence (P30988 25-474): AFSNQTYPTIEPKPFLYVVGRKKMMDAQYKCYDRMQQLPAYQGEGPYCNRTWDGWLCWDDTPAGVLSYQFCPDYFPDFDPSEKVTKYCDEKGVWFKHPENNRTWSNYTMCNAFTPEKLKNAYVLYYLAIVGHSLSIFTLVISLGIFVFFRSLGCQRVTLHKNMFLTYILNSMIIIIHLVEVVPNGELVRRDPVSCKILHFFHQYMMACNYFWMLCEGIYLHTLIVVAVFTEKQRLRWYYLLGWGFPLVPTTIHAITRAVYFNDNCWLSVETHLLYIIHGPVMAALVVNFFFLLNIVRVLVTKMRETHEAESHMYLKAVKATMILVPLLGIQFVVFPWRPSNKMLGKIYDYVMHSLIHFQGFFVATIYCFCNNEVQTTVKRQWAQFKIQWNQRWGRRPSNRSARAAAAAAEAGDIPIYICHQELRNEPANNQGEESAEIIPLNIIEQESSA
T1 sequence (O60896 24-148 partner): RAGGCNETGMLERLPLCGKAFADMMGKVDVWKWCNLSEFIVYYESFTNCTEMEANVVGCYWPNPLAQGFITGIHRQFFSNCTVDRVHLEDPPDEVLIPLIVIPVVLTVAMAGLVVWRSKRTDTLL
Description: (§1) Experimental protocol: Cells were seeded in a total volume of 20 μL into white walled, 384-well microplates and incubated at 37° C. overnight prior to testing. Prior to testing cell plating media was exchanged with 10 μL of Assay buffer (HBSS+10 mM HEPES). All compounds were run in assay buffer containing 0.1% casein. Briefly, intermediate dilution of sample stocks was performed to generate 4× sample in assay buffer. 5 μL of 4× sample was added to cells and incubated at 37° C. for 30 minutes. Final assay vehicle concentration was 1%. […] Microplates were read following signal generation with PerkinElmer Envision instrument for chemiluminescent signal detection.
(§2) The results are expressed as a percent efficacy relative to the maximum response of the control ligand.

Human GLP-1R [1] = target: T2, Human GLP-1R (Homo sapiens, UniProt P43220); test: GPCR cell-based cAMP assay, human GLP-1 receptor; set-up: expressed in transfected cells; host or cells: CHO-K1, stably transfected; conditions: stably transfected CHO-Kl cells, 0.1% casein
Description: as §1, §2
Target sequence in this assay (P43220 24-463): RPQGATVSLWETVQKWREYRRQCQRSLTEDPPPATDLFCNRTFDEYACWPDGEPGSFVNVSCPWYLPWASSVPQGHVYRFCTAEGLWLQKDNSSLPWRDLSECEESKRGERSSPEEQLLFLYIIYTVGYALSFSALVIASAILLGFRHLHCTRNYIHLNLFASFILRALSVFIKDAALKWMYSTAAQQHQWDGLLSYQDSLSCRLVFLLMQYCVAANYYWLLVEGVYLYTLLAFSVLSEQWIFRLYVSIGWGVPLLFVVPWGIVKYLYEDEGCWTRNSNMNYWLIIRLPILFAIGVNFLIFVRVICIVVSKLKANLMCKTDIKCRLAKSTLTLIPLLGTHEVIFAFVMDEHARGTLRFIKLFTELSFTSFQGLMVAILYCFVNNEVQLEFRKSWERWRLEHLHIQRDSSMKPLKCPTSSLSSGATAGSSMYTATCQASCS

4 h fasted mice = test: Blood glucose after single administration of peptides; assay type: in vivo; conditions: 4 h fasted mice, single s.c. 10 nmol/Kg, mean ± SEM
Description: (§3) Differences were considered statistically significant at p<0.05. Data analysis was carried out with GraphPad software (GraphPad Prism).

Human GIPR = target: T3, Human GIPR (Homo sapiens, UniProt P48546); test: GPCR cell-based cAMP assay, human GIP receptor; conditions: stably transfected CHO-Kl cells, 0.1% casein
T3 construct: expressed in transfected cells; host or cells: CHO-K1, stably transfected
T3 sequence (P48546 22-466): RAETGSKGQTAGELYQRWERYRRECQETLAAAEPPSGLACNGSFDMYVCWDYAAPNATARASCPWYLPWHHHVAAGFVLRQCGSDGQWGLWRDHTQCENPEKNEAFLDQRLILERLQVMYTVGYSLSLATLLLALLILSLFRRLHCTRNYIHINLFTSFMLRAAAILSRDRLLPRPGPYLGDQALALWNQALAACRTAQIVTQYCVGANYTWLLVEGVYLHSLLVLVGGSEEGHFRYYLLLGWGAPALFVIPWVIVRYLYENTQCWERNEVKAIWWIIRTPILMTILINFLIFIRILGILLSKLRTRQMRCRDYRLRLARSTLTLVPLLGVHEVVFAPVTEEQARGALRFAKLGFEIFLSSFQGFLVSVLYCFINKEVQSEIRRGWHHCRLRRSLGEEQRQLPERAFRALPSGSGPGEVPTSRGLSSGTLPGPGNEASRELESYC
Description: as §1, §2

Human CalcitoninR = target: T4, Human CalcitoninR (Homo sapiens, UniProt P30988); test: GPCR cell-based cAMP assay, human calcitonin receptor; conditions: stably transfected CHO-Kl cells, 0.1% casein
T4 construct: expressed in transfected cells; host or cells: CHO-K1, stably transfected
T4 sequence (P30988 25-474): T1 sequence (P30988 25-474)
Description: as §1, §2

lean rats = test: Acute food intake and body weight reduction in lean rats; assay type: in vivo, Sprague Dawley male rats; conditions: single s.c. 10 nmol/Kg, mean ± SEM
Description: Food intake was measured at different time-intervals post-injection up to 72 h using a precision balance. Cumulative food intake was calculated for the indicated time-periods. Body weight was measured at the indicated time-periods. Mean of cumulative food intake in each dose group was compared to vehicle and reported as a percentage of mean reduction relative to vehicle.
All data shown are the mean±standard error (SEM).

DIO mice = test: Food intake and body weight after repeated dosing in DIO mice; assay type: in vivo, C57BL/6j male mice; conditions: daily injection 10 nmol/kg for 20 days
Description: as §3

lean mice = test: Acute food intake in lean mice after single s.c. administration; assay type: in vivo, C57BL/6j male mice; conditions: mean ± SEM
Description: as §3

[2] = target: T5, human calcitonin receptor (human) (UniProt P30988); test: cell-based or functional assay
T5 sequence (looked up): T1 sequence (P30988 25-474)

Human GLP-1R [3] = target: T2, Human GLP-1R; test: cell-based or functional assay
[4] = target: T6, human GIP receptor (human) (UniProt P48546); test: cell-based or functional assay
T6 sequence (looked up): T3 sequence (P48546 22-466)

- EC50 (Human Calc/RAMP3R (AMY3)): 0.353 nM
- EC50 (Human GLP-1R [1]): 0.438 nM
- EC50 (Human GIPR): 0.121 nM
- EC50 (Human CalcitoninR): 0.185 nM
Compound: CC[C@H](C)[C@H](NC(=O)[C@H](CC(C)C)NC(=O)[C@H](Cc1c[nH]c2ccccc12)NC(=O)[C@H](CCC(N)=O)NC(=O)[C@@H](NC(=O)[C@H](Cc1ccccc1)NC(=O)[C@H](C)NC(=O)[C@H](CCC(N)=O)NC(=O)[C@H](CCC(N)=O)NC(=O)[C@H](C)NC(=O)[C@@H](NC(=O)[C@H](CCCCN)NC(=O)[C@H](CC(=O)O)NC(=O)[C@H](CC(C)C)NC(=O)C(C)(C)NC(=O)[C@@H](NC(=O)[C@H](CO)NC(=O)[C@H](Cc1ccc(O)cc1)NC(=O)[C@H](CC(=O)O)NC(=O)[C@H](CO)NC(=O)[C@@H](NC(=O)[C@H](Cc1ccccc1)NC(=O)[C@@H](NC(=O)CNC(=O)[C@H](CCC(=O)O)NC(=O)C(C)(C)NC(=O)[C@@H](N)Cc1ccc(O)cc1)[C@@H](C)O)[C@@H](C)O)[C@@H](C)CC)[C@@H](C)CC)C(C)C)C(=O)N[C@@H](C)C(=O)NCC(=O)NCC(=O)N1CCC[C@H]1C(=O)N[C@@H](CO)C(=O)N[C@@H](CCCCN)C(=O)N[C@H]1CSSC[C@@H](C(=O)N[C@H](C(=O)N[C@@H](CC(C)C)C(=O)NCC(=O)N[C@@H](CCCNC(=N)N)C(=O)N[C@@H](CC(C)C)C(=O)N[C@@H](CO)C(=O)N[C@@H](CCC(N)=O)C(=O)N[C@@H](CCC(=O)O)C(=O)N[C@@H](CC(C)C)C(=O)N[C@@H](Cc2c[nH]cn2)C(=O)N[C@@H](CCCNC(=N)N)C(=O)N[C@@H](CC(C)C)C(=O)N[C@@H](CCC(N)=O)C(=O)N[C@H](C(=O)N[C@@H](Cc2ccc(O)cc2)C(=O)N2CCC[C@H]2C(=O)N[C@@H](CCCNC(=N)N)C(=O)N[C@H](C(=O)N[C@@H](CC(N)=O)C(=O)N[C@H](C(=O)NCC(=O)N[C@@H](CCCCNC(=O)COCCOCCNC(=O)COCCOCCNC(=O)CC[C@H](NC(=O)CCCCCCCCCCCCCCCCC(=O)O)C(=O)O)C(=O)N[C@@H](CC(N)=O)C(=O)N[C@H](C(=O)N[C@@H](Cc2ccc(O)cc2)C(N)=O)[C@@H](C)O)[C@@H](C)O)[C@@H](C)O)[C@@H](C)O)C(C)C)NC(=O)[C@H]([C@@H](C)O)NC(=O)[C@H](C)NC(=O)[C@H]([C@@H](C)O)NC(=O)[C@H](CC(N)=O)NC1=O [SEQ ID NO. 47, Y-Aib-E-G-T-F-T-S-D-Y-S-I-Aib-LDKIAQQAFVQWLIAGGPSKCNTATCVLGRLSQELHRLQTYPRTNTGK*-N-T-Y-NH2-acetate salt (wherein K* = Lys(AEEAc-AEEAc-γ-Glu-17-carboxyheptadecanoyl))]
- Blood glucose, 120 min (4 h fasted mice; 120 min after injection): 102.2 ± 4.08 mg/dL
- Blood glucose, 240 min (4 h fasted mice; 240 min after injection): 77.0 ± 3.75 mg/dL
- Blood glucose, Time 0 (4 h fasted mice; Time 0 (baseline)): 174.7 ± 3.62 mg/dL
- Cumulative food intake reduction vs vehicle (lean rats; 4 H): 14.0 ± 7.72%
- Cumulative food intake reduction vs vehicle (lean rats; 12 H): 40.6 ± 4.52 %
- Cumulative food intake reduction vs vehicle (lean rats; 24 H): 40.8 ± 4.23 %
- Cumulative food intake reduction vs vehicle (lean rats; 48 H): 30.1 ± 3.03 %
- Cumulative food intake reduction vs vehicle (lean rats; 72 H): 14.3 ± 2.53 %
- Food intake reduction by intervals vs vehicle (lean rats; interval 0-4 H): 14.0 ± 7.72%
- Food intake reduction by intervals vs vehicle (lean rats; interval 4-12 H): 48.7 ± 5.41 %
- Food intake reduction by intervals vs vehicle (lean rats; interval 12-24 H): 42.9 ± 9.15 %
- Food intake reduction by intervals vs vehicle (lean rats; interval 24-48 H): 19.3 ± 2.41 %
- Food intake reduction by intervals vs vehicle (lean rats; interval 48-72 H): −23.3 ± 4.52 %
- Effect on fasting insulin (DIO mice; 4 h fasted, FIG. 5): reduced
- Effect on fasting serum glucose (DIO mice; 4 h fasted, FIG. 5): reduced
- Effect on food intake in DIO mice (DIO mice; FIG. 2): reduce
- Effect on body weight in DIO mice (DIO mice; FIG. 3): reduce
- Effect on fat mass, assessed by MRI (DIO mice; FIG. 4): reduction of fat mass
- Cumulative food intake reduction relative to vehicle (lean mice; Table 12, 10 nmol/Kg, 8 H): 64.7 ± 2.16 %
- Cumulative food intake reduction relative to vehicle (lean mice; Table 12, 10 nmol/Kg, 24 H): 65.4 ± 1.53 %
- Cumulative food intake reduction relative to vehicle (lean mice; Table 12, 10 nmol/Kg, 48 H): 42.3 ± 1.61 %
- Cumulative food intake reduction relative to vehicle (lean mice; Table 12, 10 nmol/Kg, 72 H): 26.0 ± 2.27 %
- Cumulative food intake reduction relative to vehicle (lean mice; Table 13, 10 nmol/Kg, 8 H): 62.5 ± 2.81 %
- Cumulative food intake reduction relative to vehicle (lean mice; Table 13, 10 nmol/Kg, 24 H): 49.0 ± 5.24 %
- Cumulative food intake reduction relative to vehicle (lean mice; Table 13, 10 nmol/Kg, 48 H): 28.0 ± 3.62 %
- Cumulative food intake reduction relative to vehicle (lean mice; Table 13, 10 nmol/Kg, 72 H): 14.8 ± 2.78 %
- Cumulative food intake reduction relative to vehicle (lean mice; Table 13, 30 nmol/Kg, 8 H): 83.6 ± 2.44 %
- Cumulative food intake reduction relative to vehicle (lean mice; Table 13, 30 nmol/Kg, 24 H): 64.5 ± 4.61 %
- Cumulative food intake reduction relative to vehicle (lean mice; Table 13, 30 nmol/Kg, 48 H): 36.7 ± 2.82 %
- Cumulative food intake reduction relative to vehicle (lean mice; Table 13, 30 nmol/Kg, 72 H): 25.2 ± 2.60 %

- EC50 (nM), cell-based cAMP assay, CHO-K1 cells [2]: 0.026 nM
Compound: Calcitonin (peptide)

Compound: Exendin-4 (from UniProt P26349 48-86) (peptide)
- EC50 (nM), cell-based cAMP assay, CHO-K1 cells (Human GLP-1R [3]): 0.002 nM

- EC50 (nM), cell-based cAMP assay, CHO-K1 cells [4]: 0.075 nM
Compound: GIP (peptide)
